The numbers were not newly measured in patent US11568956B2, “Methods for identifying inhibitors of amyloid protein aggregation” (Treventis Corporation, priority 2008, dated 2023), which cites them from elsewhere.

Counter-ions that a name gives are not always drawn.

Chain of Aβ (P05067 672-711 limits assumed): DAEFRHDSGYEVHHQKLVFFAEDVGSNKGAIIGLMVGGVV

One data set concerns the target Aβ (Homo sapiens, UniProt P05067). The note with it: read-out: Expt (IC50); cited from earlier work.
Regarding `CCCN1C(=CC=CC=Cc2sc3ccccc3[n+]2CCC)Sc2ccccc21` [3,3′-dipropyl thiodicarbocyanine iodine], the IC50 was 0.3 µM.
Consider `NCCc1ccc(O)c(O)c1` [dopamine chloride], for which the IC50 is 28.6 µM.

Staying with this data set, now noted: unit not in the table, μM; Masuda test set; read-out: Expt (IC50); cited from earlier work.
`Nc1c(/N=N/c2ccc(-c3ccc(/N=N/c4cc(S(=O)(=O)O)c5ccccc5c4N)cc3)cc2)cc(S(=O)(=O)O)c2ccccc12` [Congo red]: the IC50 is 0.9 µM.
Take `O=C(O)c1cc(/C=C/c2ccc(/C=C/c3ccc(O)c(C(=O)O)c3)c(Br)c2)ccc1O` [BSB]: the IC50 was 6.4 µM.
As to `c1cc2c(cc1[C@H]1OC[C@H]3[C@@H]1CO[C@@H]3c1ccc3c(c1)OCO3)OCO2` [sesamin], the IC50 was over 40 µM.
As to tocopherol, the IC50 was over 40 µM.
For the molecule `O=S(=O)(O)c1ccc2c(N=Nc3ccc(N=Nc4ccccc4)cc3)c(O)c(S(=O)(=O)O)cc2c1` [Ponceau SS], the IC50 was 1.2 µM.
Turning to `O=C(c1cc(O)c(O)c(O)c1)c1ccc(O)c(O)c1O` [exifone], the IC50 was 0.7 µM.
In the case of `Cc1cc(O)c2c(=O)c3c(O)cc(O)c4c5c(O)cc(O)c6c(=O)c7c(O)cc(C)c8c1c2c(c34)c(c78)c65` [hypericin], the IC50 was 0.9 µM.
Consider `CCN(CCO)c1ccc(/N=N/c2sc3cc(OC)ccc3[n+]2C)cc1` [basic blue 41], for which the IC50 was 1.4 µM.
For the molecule `Oc1cc(O)c2c(c1)O[C@H](c1ccc(O)c(O)c1)[C@H](O)[C@H]2c1c(O)cc(O)c2c1O[C@H](c1ccc(O)c(O)c1)[C@H](O)C2` [procyanidin B2], the IC50 was over 40 µM.
For the molecule `O=C(c1ccc(O)cc1O)c1ccc(O)cc1O` [2,2′,4,4′-tetrahydroxybenzaphenone], the IC50 was over 40 µM.
As to `C[C@H]1[C@H](C)CC[C@]2(C(=O)O)CC[C@]3(C)C(=CC[C@@H]4[C@@]5(C)C[C@@H](O)[C@H](O)[C@@](C)(CO)[C@@H]5CC[C@]43C)[C@H]12` [asiatic acid], the IC50 was over 40 µM.
On to `C[C@H](CCC(=O)NCCS(=O)(=O)O)[C@H]1CC[C@H]2[C@@H]3CC[C@@H]4C[C@H](O)CC[C@]4(C)[C@H]3CC[C@]12C` [taurolithocholic acid], for which the IC50 is over 40 µM.
Consider `O=C1C[C@@H](c2ccc(O)cc2)Oc2cc(O)cc(O)c21` [naringenin], for which the IC50 was 25 µM.
In the case of `O=C(c1ccccc1)c1ccc(O)c(O)c1O` [2,3,4-trihydroxybenzophenone], the IC50 was 3.1 µM.
With `OCCN1CCN(CCCN2c3ccccc3Sc3ccc(Cl)cc32)CC1` [perphenazine], the IC50 is over 40 µM.
With `C[C@@H]1[C@H](O)[C@@H](C)/C=C/C=C/C=C/C=C/C=C/C=C/C=C/[C@H](O[C@@H]2O[C@H](C)[C@@H](O)[C@H](N)[C@@H]2O)C[C@@H]2O[C@](O)(C[C@@H](O)C[C@@H](O)[C@H](O)CC[C@@H](O)C[C@@H](O)CC(=O)O[C@H]1C)C[C@H](O)[C@H]2C(=O)O` [amphotericin B], the IC50 is 2.2 µM.
Consider taurohydroxycholic acid, for which the IC50 was over 40 µM.
As to `O=C(c1ccc(O)cc1O)c1ccc(O)c(O)c1O` [2,3,4,2′,4′-pentahydroxybenzophenone], the IC50 was 2.8 µM.
Take `COc1cccc2c1C(=O)c1c(O)c3c(c(O)c1C2=O)C[C@@](O)(C(C)=O)C[C@@H]3O[C@H]1C[C@H](N)[C@H](O)[C@H](C)O1` [daunorubicin hydrochloride]: the IC50 is 1.4 µM.
Consider `CCC(=O)c1ccc2c(c1)N(CCCN(C)C)c1ccccc1S2` [propionylpromazine hydrochloride], for which the IC50 is over 40 µM.
In the case of `CN(C)c1ccc2nc3ccc(N)cc3[s+]c2c1` [azure A], the IC50 was 0.4 µM.
Regarding `O=c1c(O)c(-c2ccc(O)c(O)c2)oc2c(O)c(O)cc(O)c12` [gossypetin], the IC50 is 1.3 µM.
Turning to `CCCCC[C@@H](O)[C@H]1C(=O)O[C@H](C)[C@@H](O)/C=C/C=C/C=C/C=C/C=C(\C)[C@@H](O)C[C@H](O)C[C@H](O)C[C@H](O)C[C@H](O)C[C@H](O)C[C@@H]1O` [filipin III], the IC50 was 14.6 µM.
For `O=c1cc(-c2ccc(O)cc2)oc2cc(O)cc(O)c12` [Apigenin], the IC50 is over 40 µM.
With `Cc1ccc2nc(-c3ccc(N(C)C)cc3)sc2c1` [2-[4-(dimethylamino)phenyl]-6-methylbenzothiazole], the IC50 is 2 µM.
As for `O=C(c1ccc(O)cc1)c1ccc(O)cc1` [4,4′-dihydroxybenzophenone], the IC50 is over 40 µM.
As to `O=c1cc2oc3cc(O)c(-c4ccc(O)cc4O)cc3nc-2cc1-c1ccc(O)cc1O` [lacmoid], the IC50 is 1.4 µM.
In the case of `O=C(O[C@@H]1Cc2c(O)cc(O)cc2O[C@@H]1c1cc(O)c(O)c(O)c1)c1cc(O)c(O)c(O)c1` [epigallocatechin gallate], the IC50 was 2 µM.
On to `CN(C)c1ccc2nc3ccc(=[N+](C)C)cc-3sc2c1` [methylene blue], for which the IC50 was 2.3 µM.
On to `O=c1cc(-c2ccc(Oc3c(O)cc4oc(-c5ccc(O)cc5)cc(=O)c4c3O)cc2)oc2cc(O)cc(O)c12` [hinokiflavone], for which the IC50 was 5 µM.
In the case of `C[C@@H]1C(=O)O[C@H]2C[C@@]34[C@H]5C[C@@H](C(C)(C)C)[C@]36[C@@H](OC(=O)[C@@H]6O)O[C@@]4(C(=O)O5)[C@]21O` [ginkgolide A], the IC50 was over 40 µM.
Regarding `CN(C)c1ccc(N=Nc2ccccc2)cc1` [methyl yellow], the IC50 was 1.5 µM.
For `C[C@@H]1O[C@@H](OC[C@H]2O[C@@H](Oc3c(-c4ccc(O)c(O)c4)oc4cc(O)cc(O)c4c3=O)[C@H](O)[C@@H](O)[C@@H]2O)[C@H](O)[C@H](O)[C@H]1O` [rutin], the IC50 was 32 µM.
`C=CCc1ccc(O)c(-c2cc(CC=C)ccc2O)c1` [magnolol]: the IC50 is over 40 µM.
On to `O=c1c(O)c(-c2ccc(O)c(O)c2)oc2cc(O)cc(O)c12` [quercetin], for which the IC50 is 5 µM.
As to `O=c1c(O)c(-c2ccc(O)cc2)oc2cc(O)cc(O)c12` [kaempferol], the IC50 is 8 µM.
On to phthalocyanine tetrasulfonate, for which the IC50 is 3.2 µM.
For the molecule `Oc1cc(O)c2cc(O)c(-c3cc(O)c(O)c(O)c3)[o+]c2c1` [delphinidin], the IC50 is 3 µM.
For `O=C(O)c1cc(/C=C/c2ccc(/C=C/c3ccc(O)c(C(=O)O)c3)c(F)c2)ccc1O` [FSB], the IC50 was 1.9 µM.
In the case of `O=c1cc(-c2ccc(O)c(O)c2)oc2cc(O)cc(O)c12` [luteolin], the IC50 was 3 µM.
Regarding `C[C@H](CCC(=O)NCCS(=O)(=O)O)[C@H]1CC[C@H]2[C@@H]3[C@H](O)C[C@@H]4C[C@H](O)CC[C@]4(C)[C@H]3CC[C@]12C` [laurochenodeoxycholic acid], the IC50 was over 40 µM.
As to `O=c1c(-c2ccc(O)cc2)coc2cc(O)ccc12` [daidzein], the IC50 is over 40 µM.
Take `CN(C)CCCN1c2ccccc2Sc2ccccc21` [promazine hydrochloride]: the half-inhibitory concentration (IC50) was over 40 µM.
For `CO[C@H]1/C=C/O[C@@]2(C)Oc3c(C)c(O)c4c(O)c(c(/C=N/N5CCN(C)CC5)c(O)c4c3C2=O)NC(=O)/C(C)=C\C=C\[C@H](C)[C@H](O)[C@@H](C)[C@@H](O)[C@@H](C)[C@H](OC(C)=O)[C@@H]1C` [rifampicin], the IC50 was 4.9 µM.
As for `Oc1cc(O)c2c(c1)O[C@H](c1cc(O)c(O)c(O)c1)[C@H](O)C2` [epigallocatechin], the IC50 is 7 µM.
In the case of theaflavone, the half-maximal inhibitory concentration (IC50) was 2 µM.
Turning to `Oc1cc(O)c2c(c1)O[C@H](c1ccc(O)c(O)c1)[C@H](O)[C@H]2c1c(O)cc(O)c2c1O[C@H](c1ccc(O)c(O)c1)[C@@H](O)C2` [procyanidin B1], the IC50 was 14 µM.
As to ginkgolide C, the IC50 is over 40 µM.
Turning to `CC(=O)c1ccc2c(c1)N(CCCN(C)C)c1ccccc1S2` [acetopromazine maleate salt], the IC50 is over 40 µM.
On to `C[C@H](CCC(=O)NCCS(=O)(=O)O)[C@H]1CC[C@H]2[C@@H]3CC[C@@H]4C[C@H](OS(=O)(=O)O)CC[C@]4(C)[C@H]3CC[C@]12C` [taurolithocholic aicd 3-sulfate], for which the IC50 is over 40 µM.
Regarding `O=C(/C=C/c1ccc(O)c(O)c1)O[C@H](Cc1ccc(O)c(O)c1)C(=O)O` [rosmarinic acid], the IC50 is 12 µM.
For the molecule `Oc1cc(O)c2cc(O)c(-c3ccc(O)c(O)c3)[o+]c2c1` [cyanidin], the IC50 is 4 µM.
As to `O=C(O[C@@H]1Cc2c(O)cc(O)cc2O[C@@H]1c1ccc(O)c(O)c1)c1cc(O)c(O)c(O)c1` [epicatechin 3-gallate], the IC50 is 3 µM.
On to `CCN(CC)CCCC(C)Nc1c2ccc(Cl)cc2nc2ccc(OC)cc12` (stereo not shown) [quinacrine], for which the IC50 was 8.4 µM.
With `Oc1cc(O)c2c(c1)O[C@H](c1ccc(O)c(O)c1)[C@H](O)C2` [epicatechin], the IC50 was over 40 µM.
For the molecule `Nc1ccc(N=Nc2ccc(-c3ccc(N=Nc4c(S(=O)(=O)O)cc5cc(S(=O)(=O)O)c(N=Nc6ccccc6)c(O)c5c4N)cc3)cc2)c(N)c1` [chlorazol black E], the IC50 was 0.3 µM.
Regarding `CCCCC[C@H](O)CC(=O)CCc1ccc(O)c(OC)c1` [gingerol], the IC50 is 25 µM.
Regarding `CN(C)CCCN1c2ccccc2Sc2ccc(Cl)cc21` [chlorpromazine hydrochloride], the IC50 was over 40 µM.
`O=C(c1ccccc1O)c1ccccc1O` [2,2′-dihydroxybenzophenone]: the IC50 is over 40 µM.
Take `C[C@H](CCC(=O)NCCS(=O)(=O)O)[C@H]1CC[C@H]2[C@@H]3[C@@H](O)C[C@@H]4C[C@H](O)CC[C@]4(C)[C@H]3CC[C@]12C` [tauroursodeoxycholic acid]: the IC50 is over 40 µM.
On to `CC1C(=O)OC2C(O)C34C5CC(C(C)(C)C)C36C(OC(=O)C6O)OC4(C(=O)O5)C12O` (stereo not shown) [ginkgolide B], for which the IC50 was 11 µM.
For `Cc1ccc2nc(-c3ccc(N)cc3)sc2c1` [2-(4-aminophenyl)-6-methylbenzothiazole], the IC50 was 2 µM.
`O=C(/C=C/c1ccc(O)c(O)c1)O[C@@H]1C[C@](O)(C(=O)O)C[C@@H](O)[C@H]1O` [chlorogenic acid]: the IC50 is over 40 µM.
Consider `Oc1cc(O)c2c(c1)O[C@H](c1cc(O)c(O)c(O)c1)[C@@H](O)C2` [gallocatechin], for which the IC50 was 7 µM.
On to `O=C1NC(=O)c2cc(Nc3ccccc3)c(Nc3ccccc3)cc21` [4,5-dianilinophthalimide], for which the IC50 is 2.9 µM.
